The results in this text go back to ChEMBL document CHEMBL3526027, “Pharmacokinetics, metabolism, and excretion of the antidiabetic agent ertugliflozin (PF-04971729) in healthy male subjects” (Drug Metab Dispos, 2013).

Usually bioavailability stands for the share of a dose that reaches the circulation, judged against a reference dose that is usually intravenous. The term Cmax denotes the maximum level reached in the sampled fluid or tissue. What is called Tmax is the time from dosing to the highest level. One may read the AUC(0-t) as the area under the concentration-time curve up to a stated or last time point. Low readings indicate less exposure, high ones more exposure. A word on the AUC: it is the area under the concentration-time curve, a measure of exposure. Higher therefore signals more exposure.

The subject of data set [1] is Plasma. The experiment in a line: Drug level in Sprague-Dawley rat plasma treated with [14C]-ertugliflozin at 25 mg/kg, po. Format: ADME, organism-based. Further details: dose 25 mg/kg, route oral. As to conditions: in vivo.
Data set [2] deals with Plasma. The data set is described as follows: Drug level in beagle dog plasma treated with [14C]-ertugliflozin at 10 mg/kg, po. Format: ADME, organism-based, Canis lupus familiaris. Further details: dose 10 mg/kg, route oral. The note with it: in vivo.
A short description of data set [3]: Drug excretion in healthy human urine treated with [14C]-ertugliflozin at 25 mg, po by HPLC-radiocardiogram analysis. Format: ADME, organism-based. As to conditions: in vivo.
Data set [4] has as its system Homo sapiens. The experiment in a line: Total drug excretion in healthy human treated with [14C]-ertugliflozin at 25 mg, po by HPLC-radiocardiogram analysis. Format: ADME, organism-based. As to conditions: in vivo.
Data set [5] deals with Plasma. The data set is described as follows: Drug metabolism in healthy human plasma treated with [14C]-ertugliflozin at 25 mg, po by HPLC-radiocardiogram analysis. Format: ADME, organism-based. The note with it: in vivo.
Data set [6] can be described thus: Drug level in bile duct-cannulated rat bile treated with [14C]-ertugliflozin at 25 mg/kg, po. Format: ADME, organism-based. Further details: dose 25 mg/kg, route oral. As to conditions: in vivo.
The nature of data set [7]: Drug level in bile duct-cannulated dog bile treated with [14C]-ertugliflozin at 10 mg/kg, po. On the set-up: dose 10 mg/kg, route oral. As to conditions: in vivo. Format: ADME, organism-based, Canis lupus familiaris.
For data set [8], the system named is Liver microsome. The experiment in a line: Metabolic stability in human liver microsomes assessed as retention time treated with 10 µM ertugliflozin by HPLC analysis.
Data set [9] is described as follows: Drug recovery in beagle dog feces assessed as ertugliflozin-4-O-beta-glucuronide level at 10 mg/kg, po. Format: ADME, organism-based, Canis lupus familiaris. On the set-up: dose 10 mg/kg, route oral. The note with it: in vivo.
The subject of data set [10] is Plasma. The data set is described as follows: Drug metabolism in Sprague-Dawley rat plasma assessed as ertugliflozin-4-O-beta-glucuronide level at 25 mg/kg, po. Format: ADME, organism-based. Further details: dose 25 mg/kg, route oral. The note with it: in vivo.
The test system of data set [11] is Plasma. The data set is described as follows: Drug metabolism in Sprague-Dawley rat plasma assessed as ertugliflozin-3-O-beta-glucuronide level at 25 mg/kg, po. Format: ADME, organism-based. On the set-up: dose 25 mg/kg, route oral. The note with it: in vivo.
Data set [12] has as its system Plasma. The data set is described as follows: Drug metabolism in beagle dog plasma assessed as ertugliflozin-4-O-beta-glucuronide level at 10 mg/kg, po. Format: ADME, organism-based, Canis lupus familiaris. On the set-up: dose 10 mg/kg, route oral. The note with it: in vivo.
Data set [13] deals with Plasma. The data set is described as follows: Drug metabolism in beagle dog plasma assessed as ertugliflozin-3-O-beta-glucuronide level at 10 mg/kg, po. Format: ADME, organism-based, Canis lupus familiaris. As to conditions: in vivo. Further details: dose 10 mg/kg, route oral.
Data set [14] relates to Liver microsome. The data set is described as follows: Metabolic stability in human liver microsomes assessed as retention time at 10 uM by HPLC analysis. The note with it: in vitro.
Data set [15] is described as follows: Drug recovery in Sprague-Dawley rat feces treated with [14C]-ertugliflozin at 25 mg/kg, po. Format: ADME, organism-based. Further details: dose 25 mg/kg, route oral. The note with it: in vivo.
Data set [16] is described as follows: Drug recovery in beagle dog feces treated with [14C]-ertugliflozin at 10 mg/kg, po. Format: ADME, organism-based, Canis lupus familiaris. On the set-up: dose 10 mg/kg, route oral. As to conditions: in vivo.
Data set [17] in a line: Drug excretion in healthy human feces treated with [14C]-ertugliflozin at 25 mg, po by HPLC-radiocardiogram analysis. The note with it: in vivo. Format: ADME, organism-based.
Data set [18] is described as follows: Oral bioavailability in Sprague-Dawley rat at 2 mg/kg. As to conditions: in vivo. Format: ADME, organism-based.
A short description of data set [19]: Oral bioavailability in beagle dog at 2 mg/kg. Format: ADME, organism-based, Canis lupus familiaris. As to conditions: in vivo.
The nature of data set [20]: Terminal elimination half life in human at 0.5 to 300 mg, po. Format: ADME, organism-based. The note with it: in vivo, read-out: beta t1/2 (converted).
Data set [21] is described as follows: Cmax in healthy human at 25 mg, po. Format: ADME, organism-based. As to conditions: in vivo. On the set-up: dose 25 mg, route oral.
Data set [22] in a line: Tmax in healthy human at 25 mg, po. Format: ADME, organism-based. The note with it: in vivo.
A short description of data set [23]: AUC (0 to last) in healthy human at 25 mg, po. As to conditions: plasma. Format: ADME, organism-based. On the set-up: dose 25 mg, time 0 - last, route oral.
Data set [24] concerns Homo sapiens. The experiment in a line: AUC (0 to infinity) in healthy human at 25 mg, po. Format: ADME, organism-based, Plasma. The note with it: in vivo. Further details: dose 25 mg, time infinity, route oral.
Data set [25] in a line: Terminal half life in healthy human at 25 mg, po. Format: ADME, organism-based. The note with it: in vivo, read-out: beta t1/2 (converted).
Data set [26] in a line: Total drug excretion in healthy human at 25 mg, po by HPLC-radiocardiogram analysis. Format: ADME, organism-based. As to conditions: in vivo, read-out: Drug excretion.
Data set [27] is described as follows: Drug metabolism in healthy human plasma at 25 mg, po by HPLC-radiocardiogram analysis. Format: ADME, organism-based. The note with it: read-out: Drug metabolism.
A short description of data set [28]: Drug level in bile duct-cannulated rat bile at 25 mg/kg, po. Format: ADME, organism-based. Further details: dose 25 mg/kg, route oral. The note with it: read-out: Drug uptake.
Data set [29] can be described thus: Drug level in bile duct-cannulated dog bile at 10 mg/kg, po. On the set-up: dose 10 mg/kg, route oral. Format: ADME, organism-based, Canis lupus familiaris. The note with it: read-out: Drug uptake.

For the compound `CCOc1ccc(Cc2cc([C@]34OC[C@](CO)(O3)[C@@H](O)[C@H](O[C@@H]3O[C@H](C(=O)O)[C@@H](O)[C@H](O)[C@H]3O)[C@H]4O)ccc2Cl)cc1`, the Drug metabolism entry was “metabolite_detected” in the data set on Plasma [1], “metabolite_detected” with Plasma [2] and 24.1% in the data set on Plasma [5]. Further, the Drug excretion (in [3]; in the data set with Homo sapiens [4]) was 31.7% throughout. Besides, the figures for the Drug uptake in [6] and in data set [7] were 16.5% and 39.2%, respectively. Moreover, in the data set with Liver microsome [8], the Retention_time is listed as 34.3 min.

Take `CCO[14c]1[14cH][14cH][14c](Cc2cc([C@]34OC[C@](CO)(O3)[C@@H](O)[C@H](O)[C@H]4O)ccc2Cl)[14cH][14cH]1.O=C1CC[C@@H](C(=O)O)N1`: the Drug recovery entry in data set [9] is “metabolite_not_detected”. In addition, the Drug metabolism entry in the data set with Plasma [10], in the data set on Plasma [11], in the data set on Plasma [12] and with Plasma [13] was “metabolite_detected” in each case. Further, the Retention_time with Liver microsome [14] came to 36.4 min.

Take `OC[C@@]12CO[C@@](c3ccc(Cl)c(Cc4ccc(O)cc4)c3)(O1)[C@H](O)[C@@H](O)[C@@H]2O`: the Drug recovery in data set [15] was 26.7%; in data set [16] it was 8.7%. The results for the Drug excretion (in [3]; in [17]; in the data set with Homo sapiens [4]) were 0.4%, 1% and 1.4%, respectively. The compound also gave a Drug metabolism with Plasma [5] of 1.3%. The Retention_time in the data set with Liver microsome [8] is recorded as 27.2 min.

For `CCOc1ccc(Cc2cc([C@]34OC[C@](CO)(O3)[C@@H](O)[C@H](O)[C@H]4O[C@@H]3O[C@H](C(=O)O)[C@@H](O)[C@H](O)[C@H]3O)ccc2Cl)cc1`, the Drug metabolism entry in the data set on Plasma [1] was “metabolite_detected”; in the data set on Plasma [2], “metabolite_detected”; in the data set on Plasma [5], 12.2%. Besides, the Drug excretion (in [3]; with Homo sapiens [4]) was 5.7% throughout. The Retention_time in the data set on Liver microsome [8] came out at 29.4 min.

`CCOc1ccc(C(O)c2cc([C@]34OC[C@](CO)(O3)[C@@H](O)[C@H](O)[C@H]4O)ccc2Cl)cc1` (mixture of isomers) had a Drug recovery in [16] of 7.1%. The figures for the Drug excretion (in data set [3]; in [17]; with Homo sapiens [4]) were 0.7%, 1.7% and 2.4%, respectively. In the data set with Plasma [5], this compound yielded a Drug metabolism of 2.5%. For the same compound, in the data set with Liver microsome [8], the Retention_time is on record as 27.9 min.

For the compound `CCOc1ccc(Cc2cc([C@]34OC[C@](CO)(O3)[C@@H](O)[C@H](O)[C@H]4O)ccc2Cl)cc1` [ERTUGLIFLOZIN], the bioavailability is 69% in data set [18] and 94% in data set [19]. Moreover, the results for the half-life in [20] and in [25] were 11 h and 16.9 h, respectively. The Cmax in data set [21] was 490 ng/mL. Moreover, the Tmax in data set [22] turned out to be 1 h. For the same compound, the AUC(0-t) in data set [23] is 2790 ng·h/mL. The same compound came in with an AUC in the data set on Homo sapiens [24] of 2800 ng·h/mL. For the same compound, the dose excreted in data set [26] was found to be 35.3%; in data set [28] it was 2.4%; in data set [29], 9.6%. Further, in data set [27], the metabolised amounted to 49.9%. The Retention_time in the data set on Liver microsome [14] came to 36.4 min.
